# Measurements taken from ChEMBL document CHEMBL1201862, “PubChem BioAssay data set” (2004).
#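 Where inhibition never reached the appropriate level, the endpoint shown equals the highest concentration tested. Otherwise, values were interpolated linearly from a five-concentration, 48-hour dose response in 96-well plates. GI50 is the concentration that inhibits growth by half.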 The source made the active and inactive calls. No stated cut-off is given here; in the data, active = GI50 up to about 1.1 µM and inactive = higher.
# Legend:
# Assay in all cases: inhibition of tumour cell growth, NCI panel, 48 h
# [1] = system: Hs-578T
# [2] = system: HOP-18
# [3] = system: DLD-1
# [4] = system: SNB-78
# [5] = system: XF498
# [6] = system: M19-MEL
# [7] = system: DMS-273
# [8] = system: KM-20L2
# [9] = system: RXF 631
Structure (SMILES),GI50 [1],GI50 [6],GI50 [7],GI50 [8],other results
CC1(C)Oc2ccc3ccc(=O)oc3c2C(O)C1O (centres undefined),52.1 µM (inactive),–,–,–,–
S=c1sc2c(Cl)ncnc2n1-c1ccccc1,–,3.8 µM (inactive),1.51 µM (inactive),19.1 µM (inactive),GI50 [2]: 19 µM (inactive); GI50 [3]: 11.5 µM (inactive); GI50 [4]: 10.5 µM (inactive); GI50 [5]: 15.2 µM (inactive)
Cc1cc(O)nc2cc3oc4ccccc4c3cc12,0.562 µM (active),–,–,–,–
O=[N+]([O-])c1ccc(N2N=C(c3ccc4ccccc4c3O)CC2c2ccc(Cl)cc2)c([N+](=O)[O-])c1 (centres undefined),37.9 µM (inactive),–,–,–,–
CSC1CC2C(CC1(C)SC)C2(C)C (centres undefined),–,37.2 µM (inactive),45.4 µM (inactive),–,GI50 [3]: 58.1 µM (inactive); GI50 [4]: 74.3 µM (inactive); GI50 [5]: 19.7 µM (inactive)
O=C(NNC(=O)c1ccccc1Cl)c1ccccc1O,41.9 µM (inactive),–,–,–,–
COc1cc(-c2cc(=O)c3cc(C)c(C)c(C(=O)O)c3o2)cc(OC)c1OC,–,> 100 µM (inactive),> 100 µM (inactive),> 100 µM (inactive),GI50 [3]: > 100 µM (inactive); GI50 [4]: > 100 µM (inactive); GI50 [5]: > 100 µM (inactive); GI50 [9]: > 100 µM (inactive)
COc1cc2oc(-c3ccc4c(c3)OCO4)c(OC)c(=O)c2c(OC)c1OC,52.2 µM (inactive),–,–,–,–
CN(C)Cc1cc(/N=N/c2ccc(Cl)cc2)ccc1O,15 µM (inactive),–,–,–,–
Cc1ccc(/C=N/Nc2nncc3ccccc23)s1,35.6 µM (inactive),–,–,–,–
CC(=O)O[C@H]1CCC2[C@@H]3CCC4=C(O)c5nocc5C[C@]4(C)C3CC[C@@]21C (some centres undefined),–,> 100 µM (inactive),> 100 µM (inactive),> 100 µM (inactive),GI50 [2]: > 100 µM (inactive); GI50 [4]: > 100 µM (inactive); GI50 [5]: > 100 µM (inactive)
O=C1C(Cl)=C(N2CCN(c3ccccn3)CC2)C(=O)c2c(O)ccc(O)c21,1.84 µM (inactive),–,–,–,–
COC(=O)c1c2c(cc3c1CC1(Cc4cc5c(cc4C1)CCC5)C3)CCC2,> 100 µM (inactive),–,–,–,–
Cc1nnc2sc(Cl)nn12,39.5 µM (inactive),–,–,–,–
CCCC(=O)c1c(NOC2OC(COC(C)=O)C(OC(C)=O)C(OC(C)=O)C2OC(C)=O)nc(OC)n(C)c1=O (centres undefined),–,> 100 µM (inactive),> 100 µM (inactive),> 100 µM (inactive),GI50 [3]: > 100 µM (inactive); GI50 [4]: > 100 µM (inactive); GI50 [5]: > 100 µM (inactive)
Cc1cc(S(=O)(=O)Nc2nc(N)n(-c3cnc4ccccc4n3)n2)c(S)cc1Cl,78.5 µM (inactive),–,–,–,–
CCCCN(CC)CC(C(C)=O)c1c(O)c2ccccc2oc1=O (centres undefined),–,> 100 µM (inactive),> 100 µM (inactive),> 100 µM (inactive),GI50 [2]: > 100 µM (inactive); GI50 [3]: > 100 µM (inactive); GI50 [4]: > 100 µM (inactive); GI50 [5]: > 100 µM (inactive)
CC(=O)OC(C)(C)/N=N/c1ccc(Br)cc1,> 53.2 µM (inactive),–,–,–,–
COc1cc2c3c([nH]c2c(OC)c1OC)CCN(Cc1ccccc1)C3,32.4 µM (inactive),–,–,–,–
CC(=O)c1c2c(cc3c1CC1(Cc4cc5c(cc4C1)CCCC5)C3)CCCC2,> 100 µM (inactive),–,–,–,–
CC(Cc1cccc2c1Nc1ccccc1S2)N(C)CCO (centres undefined),> 100 µM (inactive),–,–,–,–
O=c1[nH]cnc2c1nnn2C1C=C(CO)C(O)C1O (centres undefined),–,> 100 µM (inactive),23.5 µM (inactive),> 100 µM (inactive),GI50 [2]: > 100 µM (inactive); GI50 [3]: > 100 µM (inactive); GI50 [4]: > 100 µM (inactive); GI50 [5]: > 100 µM (inactive)

Structure (SMILES),GI50 [1],GI50 [6],GI50 [7],GI50 [8],other results
Cc1ccc(S(=O)(=O)OCC23CCC(C4CC42)C2CC23)cc1 (centres undefined),–,60.7 µM (inactive),68.2 µM (inactive),> 100 µM (inactive),GI50 [2]: > 100 µM (inactive); GI50 [3]: > 100 µM (inactive); GI50 [9]: > 100 µM (inactive)
N#Cc1ncn(CCO)c1N,> 100 µM (inactive),–,–,–,–
[N-]=[N+]=Nc1c(Cc2ccccc2)c(Cl)nc2ccccc12,21.3 µM (inactive),–,–,–,–
COc1cc(/C=C2\NC(=S)C3Cc4c(OC)c(C)c(OC)c(OC)c4C2N3C)c(OC)c(C)c1OC (centres undefined),–,45.6 µM (inactive),46.9 µM (inactive),64 µM (inactive),GI50 [2]: 27.8 µM (inactive); GI50 [3]: 51.1 µM (inactive)
Cc1ccc(NCC(=O)N2CC(=O)Nc3ccccc32)c(C)c1,–,> 100 µM (inactive),> 100 µM (inactive),> 100 µM (inactive),GI50 [2]: > 100 µM (inactive); GI50 [3]: > 100 µM (inactive); GI50 [4]: > 100 µM (inactive); GI50 [5]: > 100 µM (inactive)
O=C(O)C1C2C=CC(C2)C1c1ccccc1 (centres undefined),> 100 µM (inactive),–,–,–,–
CCOC(=O)C(C(=O)c1ccccc1-c1ccccc1C(=O)O)=P(c1ccccc1)(c1ccccc1)c1ccccc1,–,27.8 µM (inactive),31.8 µM (inactive),21 µM (inactive),GI50 [5]: 23.3 µM (inactive); GI50 [9]: 37.8 µM (inactive)
COC1(OC)c2no[n+]([O-])c2C(OC)(OC)c2c1no[n+]2[O-],31.4 µM (inactive),–,–,–,–
COC1(OC)N=C(N)C2(C#N)C(C)CC(=O)N(N(C)C)C12C#N (centres undefined),> 100 µM (inactive),–,–,–,–
NC(C(F)(F)F)(C(F)(F)F)P(=O)(c1ccccc1)c1ccccc1,> 100 µM (inactive),–,–,–,–
CCC(C)[C@H](NC(=O)[C@H](Cc1ccccc1)NC(=O)N(CC)c1ccccc1)C(=O)N[C@@H](CC(C)C)C(=O)OC (some centres undefined),63.1 µM (inactive),–,–,–,–
COc1ccc2c(c1)C1Oc3ccccc3CC1CO2 (centres undefined),34 µM (inactive),–,–,–,–
Cc1ccccc1/N=N/c1c(-c2ccccc2)nn(C(=O)CC(=O)Nc2cccc(Cl)c2)c1-c1ccccc1,–,> 10 µM (inactive),20 µM (inactive),21.5 µM (inactive),GI50 [2]: 25.7 µM (inactive); GI50 [3]: 20.4 µM (inactive); GI50 [4]: 23.5 µM (inactive); GI50 [5]: 28.2 µM (inactive)
CC(C)(C)OC(=O)NCCCCC(NC(=O)c1ccccc1)C(N)=O (centres undefined),> 100 µM (inactive),–,–,–,–
CC1(C)[C@H]2CC[C@]1(C)[C@H](OC(=O)NNC(=O)O[C@@H]1C[C@@H]3CC[C@@]1(C)C3(C)C)C2,14.2 µM (inactive),–,–,–,–
Cc1cc2c(c(C#N)c1C)NC(=O)CCC2=O,–,> 100 µM (inactive),> 100 µM (inactive),> 100 µM (inactive),GI50 [3]: > 100 µM (inactive); GI50 [4]: > 100 µM (inactive); GI50 [5]: > 100 µM (inactive); GI50 [9]: > 100 µM (inactive)
COc1ccc(-c2cc(-c3ccco3)c(C#N)c(=O)n2C2OC(OC(=O)c3ccccc3)C(OC(=O)c3ccccc3)C2OC(=O)c2ccccc2)cc1 (centres undefined),–,> 100 µM (inactive),63.4 µM (inactive),> 100 µM (inactive),GI50 [2]: > 100 µM (inactive); GI50 [3]: > 100 µM (inactive); GI50 [4]: > 100 µM (inactive); GI50 [9]: > 100 µM (inactive)
O=C(CSc1nc2ccc(I)cc2c(=O)n1Cc1ccccc1)NNC(=O)c1ccccc1,2.85 µM (inactive),–,–,–,–
CN(C)c1ccc(/C=c2/c3ccccc3n3nc4ccccc4c23)cc1,35.6 µM (inactive),–,–,–,–
Nc1cccc(C2CCCc3c2[nH]c2ccccc32)c1 (centres undefined),16 µM (inactive),–,–,–,–
COc1cc2c(cc1OC)[C@H]1C(COC(=O)c3ccccc3)CS/C(=N/c3ccccc3)N1CC2 (some centres undefined),–,> 100 µM (inactive),74 µM (inactive),76 µM (inactive),GI50 [2]: > 100 µM (inactive); GI50 [3]: > 100 µM (inactive); GI50 [4]: 27 µM (inactive); GI50 [5]: > 100 µM (inactive)
Cn1ccnc1Oc1ccc(Cl)cc1,24.4 µM (inactive),–,–,–,–

Structure (SMILES),GI50 [1],GI50 [6],GI50 [7],GI50 [8],other results
CC(=O)OCC12CC(CC1OC(C)=O)c1ccccc12 (centres undefined),–,> 100 µM (inactive),> 100 µM (inactive),> 100 µM (inactive),GI50 [2]: > 100 µM (inactive); GI50 [9]: > 100 µM (inactive)
O=c1[nH]nc(Cc2ccc(Cl)cc2)n1Nc1ccccc1,47.9 µM (inactive),–,–,–,–
[N-]=[N+]=Nc1ccc2c(c1)Sc1ccccc1N2CCCCN1CCN(C(=O)CCNC(=O)Cc2ccc(C(=O)c3ccccc3)cc2)CC1,17.7 µM (inactive),–,–,–,–
COc1ccc(C(OCC2OC(n3ccc(NC(=O)c4ccccc4)nc3=O)C(O)C2O)(c2ccccc2)c2ccccc2)cc1 (centres undefined),2.12 µM (inactive),–,–,–,–
C[C@@H]1CCC2C(C)(C)C(/C=C\C=O)C3(C)OC213 (some centres undefined),21.5 µM (inactive),–,–,–,–
N#CC1(c2ccccc2)CCN(C2(c3ccccc3)CCCCC2)CC1,44 µM (inactive),–,–,–,–
CCOC(=O)c1nnsc1N/N=C\c1ccc([N+](=O)[O-])cc1,> 100 µM (inactive),–,–,–,–
COc1ccccc1/C=N/C12CC3CC(CC(C3)C1)C2,–,> 100 µM (inactive),> 100 µM (inactive),> 100 µM (inactive),–
COc1ccc([S+]([O-])Cc2cc(OC)c(OC)c(OC)c2)cc1 (centres undefined),> 100 µM (inactive),–,–,–,–
Nc1nc(O)nc2snnc12,> 54.8 µM (inactive),–,–,–,–
COc1cc2c(cc1OC)C(=O)/C(=C/c1ccc(Cl)cc1)CC2,> 10 µM (inactive),–,–,–,–
O=C1CC(Nc2ccccc2)c2c(Cl)sc(Cl)c21 (centres undefined),2.42 µM (inactive),–,–,–,–
O=C(COc1ccc(OCC(=O)N2C(=O)CN(c3ccccc3)C2=S)cc1)N1C(=O)CN(c2ccccc2)C1=S,> 64.4 µM (inactive),–,–,–,–
COC(=O)C1=C(C(=O)OC)SC(=C2c3ccsc3-c3sccc32)S1,14.9 µM (inactive),–,–,–,–
COC(=O)/C=C\C(C#N)(C#N)/N=C/c1ccccc1,12.2 µM (inactive),–,–,–,–
C1=Cc2nc1c(-c1ccncc1)c1ccc([n-]1)c(-c1ccncc1)c1nc(c(-c3ccncc3)c3ccc([n-]3)c2-c2ccncc2)C=C1.[Zn+2],–,> 100 µM (inactive),–,> 100 µM (inactive),GI50 [3]: > 100 µM (inactive); GI50 [4]: > 100 µM (inactive); GI50 [5]: > 100 µM (inactive); GI50 [9]: > 100 µM (inactive)
C[C@@H]1CC[C@@]2(C)OC(c3ccccc3)[C@H](CO)N2C1=O (some centres undefined),–,> 100 µM (inactive),> 100 µM (inactive),> 100 µM (inactive),GI50 [2]: > 100 µM (inactive); GI50 [3]: > 100 µM (inactive); GI50 [4]: > 100 µM (inactive); GI50 [5]: > 100 µM (inactive)
Cc1c2cccc-2c(N(C)C)cc2c1[nH]c1ccccc12,3.57 µM (inactive),–,–,–,–
O=c1ncccn1[C@@H]1O[C@H](CO)[C@@H](O)[C@@H]1F,–,> 100 µM (inactive),> 100 µM (inactive),> 100 µM (inactive),GI50 [2]: > 100 µM (inactive); GI50 [4]: > 100 µM (inactive); GI50 [5]: > 100 µM (inactive); GI50 [9]: > 51.6 µM (inactive)
CCOC(=O)C(Cc1cn(S(=O)(=O)c2ccccc2)c2ccccc12)(NC(C)=O)C(=O)OCC,–,40.7 µM (inactive),35 µM (inactive),46.6 µM (inactive),GI50 [3]: 40.1 µM (inactive); GI50 [5]: 29.7 µM (inactive)
CCN1/C(=C/c2ccc3ccccc3[n+]2CC)C=Cc2ccccc21,1.01 µM (active),–,–,–,–
COc1cc2cc3c4cc(OC)c(OC)cc4cc[n+]3c(C)c2cc1OC [CORALYNE],24.9 µM (inactive),–,–,–,–
